The results in this text go back to patent publication US20250171460A1, “INDUCERS OF KLF2 AND METHODS OF USE THEREOF” (Riparian Pharmaceuticals, Inc., priority 2022, published 2025).

The structures appear in SMILES notation. Where two headings read alike, the source gives them in different places.

For the experiment, the system named is primary human endothelial cells expressing luciferase under the control of the KLF2 promoter. Briefly: KLF2 Induction Cell Based Bioassay (luciferase reporter). As to conditions: Homo sapiens, Endothelial cell. The text has this: In endothelial cell culture media, a stock of the highest working concentration was made at no more than 1% DMSO vehicle. The working stock was then serially diluted 1:2 to make an 11-point concentration response curve. Included in the 96-well plate were 2 reference compounds with known potencies. A DMSO column was included in the 96-well plate at the highest percent vehicle of the working stocks. The 96-well cell culture plate of primary human endothelial cells expressing luciferase under the control of the KLF2 promoter was dosed with 200 μL per well of the dilution series as well as the DMSO control column. The assay plate was incubated at 37° C. for 24 hours. The supernatant was collected at 24 hours.
20 μL of the supernatant was then placed in a 384-well plate with optical duplicates. The corners of the plate received 20 μL of the Gaussia Luciferase Enzyme positive control, as well as 20 μL of the 50 μM Coelenterizine substrate. The plate read is then calibrated using the control, and read using a Molecular Devices SpectraMax iD5, providing luminescence in relative light units (RLU). The plate reader injected 20 μL of the 50 μM Coelenterizine substrate immediately before taking the RLU measurement for each well.
The sample signals were then normalized to the average signal of the DMSO column, as well as to the maximum signal of one of the reference compounds, as shown in the equations below: […]
The EC50 of each compound is then defined as when the concentration response curve passes 0.5.
On the technique in general: Reporter assays use an easily measured gene product as a stand-in for the process of interest.

The mark [1] stands for this setting: Bioactivity of stereoisomers: racemate, read-out: Bioactivity Bucket, Racemate.
Where [2] appears, read: 24 h, KLF2 promoter luciferase, 24 hours, 11-point concentration response, read-out: Activity Range (EC50).
The mark [3] stands for this setting: Bioactivity of stereoisomers: R isomer, read-out: Bioactivity Bucket, R.

`C#CCCN1C(=O)c2oc3ccccc3c2OCC1(C)C(=O)NCc1ccccc1OC` (racemic) [Example 5]: the EC50 under setting [1] was in the range of 501 to 5000 nM. As for `CC=C1CC(N2C(=O)c3oc4ccccc4c3OCC2(C)C(=O)NCc2ccccc2OC)C1` (racemic) [Example 15], the EC50 under setting [2] was 501 to 5000 nM and the EC50 under setting [1] is 501 to 5000 nM. On to `COCCN1C(=O)c2oc3cc(C(=O)NC4(C)COC4)ccc3c2OCC1(C)C(=O)NCc1c(F)cccc1OC` (racemic) [Example 81], for which the EC50 reads like this: under setting [2], 51 to 500 nM; under setting [1], 51 to 500 nM. For `COc1cccc(F)c1CNC(=O)C1(C)COc2c(oc3ccc(Cl)cc23)C(=O)N1CC(=O)N(C)C` (racemic) [Example 106, 9-chloro-4-(2-(dimethylamino)-2-oxoethyl)-N-(2-fluoro-6-methoxybenzyl)-3-methyl-5-oxo-2,3,4,5-tetrahydrobenzofuro[2,3-f][1,4]oxazepine-3-carboxamide], the EC50 is 51 to 500 nM under setting [2] and 51 to 500 nM under setting [1]. Turning to `COc1cccc(F)c1CNC(=O)[C@@]1(C)COc2c(oc3ccc(Cl)cc23)C(=O)N1CC(=O)N(C)C` (single isomer, unassigned) [Example 107], the EC50 lay in the range of 51 to 500 nM under setting [2] and 51 to 500 nM under setting [3]. Regarding `COc1ccccc1CNC(=O)C1(C)COc2c(oc3ccccc23)C(=O)N1CC1(F)CCC1` (stereo not drawn) [Example 2], under setting [2], the EC50 lay in the range of 501 to 5000 nM.

In the case of `COc1ccccc1CNC(=O)C1(C)COc2c(oc3ccccc23)C(=O)N1CC(C)(C)OC` (stereo not drawn) [Example 3], under setting [2], the EC50 was 51 to 500 nM. Still for that read-out and setting: to `CCOC(=O)CN1C(=O)c2oc3ccccc3c2OCC1(C)C(=O)NCc1ccccc1OC` (stereo not drawn) [Example 4] belongs 501 to 5000 nM. With `C#CCCN1C(=O)c2oc3ccccc3c2OC[C@]1(C)C(=O)NCc1ccccc1OC` [Example 6], the EC50 runs as follows: under setting [2], 501 to 5000 nM; under setting [3], 501 to 5000 nM.

Consider `C/C=C/CN1C(=O)c2oc3ccccc3c2OCC1(C)C(=O)NCc1ccccc1OC` (stereo not drawn) [Example 9], for which, under setting [2], the EC50 is 501 to 5000 nM. Same read-out and setting: for `COc1ccccc1CNC(=O)C1(C)COc2c(oc3ccccc23)C(=O)N1CC1(OC)CCC1` (stereo not drawn) [Example 10] the value was 501 to 5000 nM; for `COc1ccccc1CNC(=O)C1(C)COc2c(oc3ccccc23)C(=O)N1CC1(O)CCC1` (stereo not drawn) [Example 11], 501 to 5000 nM.

With `C=CCN1C(=O)c2oc3ccccc3c2OCC1(C)C(=O)NCc1ccccc1OC` (stereo not drawn) [Example 12], the EC50 under setting [2] lay within 501 to 5000 nM. Consider `COc1ccccc1CNC(=O)C1(C)COc2c(oc3ccccc23)C(=O)N1C1CCC1` (stereo not drawn) [Example 13], for which the EC50 under setting [2] is 501 to 5000 nM. As for `COc1ccccc1CNC(=O)C1(C)COc2c(oc3ccccc23)C(=O)N1C1CC2(CC2)C1` (stereo not drawn) [Example 14], the EC50 under setting [2] lay within 51 to 500 nM. `COCCN1C(=O)c2oc3ccccc3c2OCC1(C)C(=O)NCc1c(F)cc(Cl)cc1OC` (stereo not drawn) [Example 16]: the EC50 under setting [2] fell in the range of 501 to 5000 nM. On the same count and under the same terms, for `COCCN1C(=O)c2oc3ccccc3c2OCC1(C)C(=O)NCc1c(OC)ccc(F)c1Cl` (stereo not drawn) [Example 17] the value was 501 to 5000 nM; for `COCCN1C(=O)c2oc3ccccc3c2OCC1(C)C(=O)NCc1cc2ncccc2cc1OC` (stereo not drawn) [Example 18], 501 to 5000 nM. Still for that read-out and setting: to `COCCN1C(=O)c2oc3ccccc3c2OCC1(C)C(=O)NCc1c(OC)ccc2cnccc12` (stereo not drawn) [Example 19] belongs 501 to 5000 nM; to `COCCN1C(=O)c2oc3ccccc3c2OCC1(C)C(=O)NCc1c(OC)ccc2cccnc12` (stereo not drawn) [Example 20], 501 to 5000 nM; to `COCCN1C(=O)c2oc3ccccc3c2OCC1(C)C(=O)NCc1c(OC)ccc(F)c1F` (stereo not drawn) [Example 21], 501 to 5000 nM. Take `COCCN1C(=O)c2oc3ccccc3c2OCC1(C)C(=O)NCc1c(F)cc(F)cc1OC` (stereo not drawn) [Example 22]: the EC50 under setting [2] lay within 501 to 5000 nM. Take `COCCN1C(=O)c2oc3ccccc3c2OCC1(C)C(=O)NCc1cc(Cl)ccc1OC` (stereo not drawn) [Example 23]: under setting [2], the EC50 fell in the range of 501 to 5000 nM.

In the case of `COCCN1C(=O)c2oc3ccccc3c2OCC1(C)C(=O)NCc1c(Cl)cccc1OC` (stereo not drawn) [Example 24], the EC50 under setting [2] is 501 to 5000 nM.

`COCCN1C(=O)c2oc3ccccc3c2OCC1(C)C(=O)NCc1ccc(Cl)cc1OC` (stereo not drawn) [Example 25]: under setting [2], the EC50 lay within 501 to 5000 nM.
